Assay: xn = mol fraction of the nth substance listed
Settings: 101 kPa, Liquid; for mass density: Vibrating tube method

CCC(C)CO (configuration not stated) [2-methyl-1-butanol] + CCO
Settings	kinematic viscosity [m2/s]	mass density [kg/m3]
293.15 K, x1 = 0.0268	–	790.9
293.15 K, x1 = 0.0549	–	792.1
293.15 K, x1 = 0.0845	–	793.4
293.15 K, x1 = 0.0915	1.66e-06	–
293.15 K, x1 = 0.1156	–	794.7
293.15 K, x1 = 0.1484	–	795.9
293.15 K, x1 = 0.1753	1.8e-06	–
293.15 K, x1 = 0.183	–	797.2
293.15 K, x1 = 0.2524	1.92e-06	–
293.15 K, x1 = 0.2584	–	799.9
293.15 K, x1 = 0.3235	2.04e-06	–
293.15 K, x1 = 0.3433	–	802.7
293.15 K, x1 = 0.3894	2.17e-06	–
293.15 K, x1 = 0.4395	–	805.5
293.15 K, x1 = 0.4505	2.32e-06	–
293.15 K, x1 = 0.5495	–	808.4
293.15 K, x1 = 0.5605	2.67e-06	–
293.15 K, x1 = 0.6567	3.06e-06	–
293.15 K, x1 = 0.6765	–	811.4
293.15 K, x1 = 0.7416	3.47e-06	–
293.15 K, x1 = 0.817	3.92e-06	–
293.15 K, x1 = 0.8247	–	814.5
293.15 K, x1 = 0.8844	4.45e-06	–
293.15 K, x1 = 0.9451	5.14e-06	–
293.15 K, x1 = 1	6.11e-06	817.6
298.15 K, x1 = 0.0268	–	786.6
298.15 K, x1 = 0.0549	–	787.9
298.15 K, x1 = 0.0845	–	789.2
298.15 K, x1 = 0.0915	1.5e-06	–
298.15 K, x1 = 0.1156	–	790.6
298.15 K, x1 = 0.1484	–	791.9
298.15 K, x1 = 0.1753	1.61e-06	–
298.15 K, x1 = 0.183	–	793.2
298.15 K, x1 = 0.2524	1.71e-06	–
298.15 K, x1 = 0.2584	–	796
298.15 K, x1 = 0.3235	1.82e-06	–
298.15 K, x1 = 0.3433	–	798.8
298.15 K, x1 = 0.3894	1.93e-06	–
298.15 K, x1 = 0.4395	–	801.8
298.15 K, x1 = 0.4505	2.06e-06	–
298.15 K, x1 = 0.5495	–	804.8
298.15 K, x1 = 0.5605	2.36e-06	–
298.15 K, x1 = 0.6567	2.69e-06	–
298.15 K, x1 = 0.6765	–	807.9
298.15 K, x1 = 0.7416	3.04e-06	–
298.15 K, x1 = 0.817	3.43e-06	–
298.15 K, x1 = 0.8247	–	811
298.15 K, x1 = 0.8844	3.89e-06	–
298.15 K, x1 = 0.9451	4.49e-06	–
298.15 K, x1 = 1	5.34e-06	814.1
303.15 K, x1 = 0.0268	–	782.3
303.15 K, x1 = 0.0549	–	783.7
303.15 K, x1 = 0.0845	–	785
303.15 K, x1 = 0.0915	1.32e-06	–
303.15 K, x1 = 0.1156	–	786.4
303.15 K, x1 = 0.1484	–	787.8
303.15 K, x1 = 0.1753	1.41e-06	–
303.15 K, x1 = 0.183	–	789.2
303.15 K, x1 = 0.2524	1.5e-06	–
303.15 K, x1 = 0.2584	–	792
303.15 K, x1 = 0.3235	1.59e-06	–
303.15 K, x1 = 0.3433	–	795
303.15 K, x1 = 0.3894	1.68e-06	–
303.15 K, x1 = 0.4395	–	798
303.15 K, x1 = 0.4505	1.8e-06	–
303.15 K, x1 = 0.5495	–	801.1
303.15 K, x1 = 0.5605	2.06e-06	–
303.15 K, x1 = 0.6567	2.35e-06	–
303.15 K, x1 = 0.6765	–	804.2
303.15 K, x1 = 0.7416	2.66e-06	–
303.15 K, x1 = 0.817	3e-06	–
303.15 K, x1 = 0.8247	–	807.4
303.15 K, x1 = 0.8844	3.41e-06	–
303.15 K, x1 = 0.9451	3.94e-06	–
303.15 K, x1 = 1	4.69e-06	810.5
308.15 K, x1 = 0.0268	–	778
308.15 K, x1 = 0.0549	–	779.4
308.15 K, x1 = 0.0845	–	780.9
308.15 K, x1 = 0.0915	1.2e-06	–
308.15 K, x1 = 0.1156	–	782.3
308.15 K, x1 = 0.1484	–	783.8
308.15 K, x1 = 0.1753	1.27e-06	–
308.15 K, x1 = 0.183	–	785.2
308.15 K, x1 = 0.2524	1.34e-06	–
308.15 K, x1 = 0.2584	–	788.1
308.15 K, x1 = 0.3235	1.42e-06	–
308.15 K, x1 = 0.3433	–	791.2
308.15 K, x1 = 0.3894	1.5e-06	–
308.15 K, x1 = 0.4395	–	794.3
308.15 K, x1 = 0.4505	1.6e-06	–
308.15 K, x1 = 0.5495	–	797.5
308.15 K, x1 = 0.5605	1.82e-06	–
308.15 K, x1 = 0.6567	2.07e-06	–
308.15 K, x1 = 0.6765	–	800.7
308.15 K, x1 = 0.7416	2.33e-06	–
308.15 K, x1 = 0.817	2.62e-06	–
308.15 K, x1 = 0.8247	–	803.9
308.15 K, x1 = 0.8844	2.97e-06	–
308.15 K, x1 = 0.9451	3.43e-06	–
308.15 K, x1 = 1	4.08e-06	807.1
313.15 K, x1 = 0.0268	–	773.7
313.15 K, x1 = 0.0549	–	775.2
313.15 K, x1 = 0.0845	–	776.7
313.15 K, x1 = 0.0915	1.08e-06	–
313.15 K, x1 = 0.1156	–	778.2
313.15 K, x1 = 0.1484	–	779.7
313.15 K, x1 = 0.1753	1.14e-06	–
313.15 K, x1 = 0.183	–	781.2
313.15 K, x1 = 0.2524	1.2e-06	–
313.15 K, x1 = 0.2584	–	784.2
313.15 K, x1 = 0.3235	1.26e-06	–
313.15 K, x1 = 0.3433	–	787.3
313.15 K, x1 = 0.3894	1.33e-06	–
313.15 K, x1 = 0.4395	–	790.5
313.15 K, x1 = 0.4505	1.41e-06	–
313.15 K, x1 = 0.5495	–	793.8
313.15 K, x1 = 0.5605	1.6e-06	–
313.15 K, x1 = 0.6567	1.8e-06	–
313.15 K, x1 = 0.6765	–	797
313.15 K, x1 = 0.7416	2.03e-06	–
313.15 K, x1 = 0.817	2.28e-06	–
313.15 K, x1 = 0.8247	–	800.3
313.15 K, x1 = 0.8844	2.58e-06	–
313.15 K, x1 = 0.9451	2.97e-06	–
313.15 K, x1 = 1	3.54e-06	803.6
318.15 K, x1 = 0.0268	–	769.4
318.15 K, x1 = 0.0549	–	771
318.15 K, x1 = 0.0845	–	772.5
318.15 K, x1 = 0.0915	9.8e-07	–
318.15 K, x1 = 0.1156	–	774.1
318.15 K, x1 = 0.1484	–	775.6
318.15 K, x1 = 0.1753	1.03e-06	–
318.15 K, x1 = 0.183	–	777.2
318.15 K, x1 = 0.2524	1.07e-06	–
318.15 K, x1 = 0.2584	–	780.3
318.15 K, x1 = 0.3235	1.13e-06	–
318.15 K, x1 = 0.3433	–	783.5
318.15 K, x1 = 0.3894	1.19e-06	–
318.15 K, x1 = 0.4395	–	786.8
318.15 K, x1 = 0.4505	1.25e-06	–
318.15 K, x1 = 0.5495	–	790.1
318.15 K, x1 = 0.5605	1.41e-06	–
318.15 K, x1 = 0.6567	1.59e-06	–
318.15 K, x1 = 0.6765	–	793.4
318.15 K, x1 = 0.7416	1.78e-06	–
318.15 K, x1 = 0.817	2e-06	–
318.15 K, x1 = 0.8247	–	796.7
318.15 K, x1 = 0.8844	2.26e-06	–
318.15 K, x1 = 0.9451	2.6e-06	–
318.15 K, x1 = 1	3.09e-06	800.1
323.15 K, x1 = 0.0268	–	765.1
323.15 K, x1 = 0.0549	–	766.7
323.15 K, x1 = 0.0845	–	768.3
323.15 K, x1 = 0.0915	8.59e-07	–
323.15 K, x1 = 0.1156	–	769.9
323.15 K, x1 = 0.1484	–	771.5
323.15 K, x1 = 0.1753	8.96e-07	–
323.15 K, x1 = 0.183	–	773.1
323.15 K, x1 = 0.2524	9.37e-07	–
323.15 K, x1 = 0.2584	–	776.3
323.15 K, x1 = 0.3235	9.83e-07	–
323.15 K, x1 = 0.3433	–	779.6
323.15 K, x1 = 0.3894	1.04e-06	–
323.15 K, x1 = 0.4395	–	782.9
323.15 K, x1 = 0.4505	1.1e-06	–
323.15 K, x1 = 0.5495	–	786.3
323.15 K, x1 = 0.5605	1.23e-06	–
323.15 K, x1 = 0.6567	1.39e-06	–
323.15 K, x1 = 0.6765	–	789.7
323.15 K, x1 = 0.7416	1.56e-06	–
323.15 K, x1 = 0.817	1.75e-06	–
323.15 K, x1 = 0.8247	–	793.2
323.15 K, x1 = 0.8844	1.98e-06	–
323.15 K, x1 = 0.9451	2.28e-06	–
323.15 K, x1 = 1	2.72e-06	796.6
